Source: patent US10966951B2, “Compositions and methods for lowering triglycerides in a subject having reduced kidney function” (Amarin Pharmaceuticals Ireland Limited, priority 2017, dated 2021)

Assays:
[1] = test system: patients with reduced kidney function (eGFR<90 mL/min/1.73 m^2) and diabetes mellitus; assay: Post-hoc ANCHOR analysis, reduced kidney function and diabetes mellitus (Example 5); assay type: in vivo, human; settings: 4 g/day
Protocol: CVD-related (e.g., atherogenic) parameters were analyzed in a post-hoc study of 198 patients from the multi-center, placebo-controlled, randomized double-blind, 12-week study described in Example 1. These 198 patients have reduced kidney function (e.g., eGFR<90 mL/min/1.73 m^2 for ≥3 months) and diabetes mellitus.
98 patients were randomized to E-EPA and 100 patients were randomized to placebo. In total, atherogenic parameters were analyzed in all 198 patients, 56% of which were male and 97% of which were white. The mean age of the 198 patients was 63 years old.
The primary objective of this post-hoc study was to determine if and how 4 g of daily of >96% E-EPA, compared to placebo, affects patients with reduced kidney function, diabetes mellitus, and high triglyceride levels. The secondary objective was to determine if and how 4 g daily >96% E-EPA, compared to placebo, affected CVD-related parameters in patients having a high risk for CVD and fasting TG levels 200 mg/dL and <500 mg/dL, despite treatment to LDL-C goal on statin therapy. These CVD-parameters include lipid levels, lipoprotein levels, and inflammatory markers, such as TC, LDL-C, HDL-C, vLDL-C, vLDL-TG, RLP-C, non-HDL-C, Apo B, Apo C-III, Lp-PLA, hsCRP, and ox-LDL, and in plasma and RBC EPA concentration. CVD-parameters were analyzed for median difference in percent change from baseline to week 12 in subjects receiving 4 g/day of E-EPA and those receiving the placebo.
The median difference in lipid/lipoprotein, apolipoprotein, and inflammatory parameters were determined from baseline to week 12 for 4/g day of E-EPA compared to placebo.

[2] = test system: patients with chronic kidney disease (eGFR<60 mL/min/1.73 m^2); assay: Post-hoc ANCHOR analysis, chronic kidney disease: lipid, lipoprotein, oxidation and inflammation parameters (Example 7); assay type: in vivo, human; settings: CKD
Protocol: CVD-related (e.g., atherogenic) parameters were analyzed in a post-hoc study of 55 patients from the multi-center, placebo-controlled, randomized double-blind, 12-week study described in Example 1. These 55 patients have chronic kidney disease (e.g., eGFR<60 mL/min/1.73 m^2 for ≥3 months). There was no lower limit of eGFR specified.
19 patients were randomized to E-EPA and 36 patients were randomized to placebo. One patient in each group discontinued and was excluded from efficacy analyses (but not safety analyses). EPA levels in plasma and RBC were measured in 23 of the 55 patients. These measurements were taken on 7 of the patients randomized to E-EPA and on 16 of the patients that were randomized to the placebo.
The primary objective of this post-hoc study, which is based on an intention to treat, was to determine if and how 4 g daily of >96% E-EPA affects patients with stage 3 chronic kidney disease (e.g., eGFR<60 mL/min/1.73 m^2 for ≥3 months). The secondary objective was to determine if and how 4 g daily of >96% E-EPA, compared to a placebo, affected CVD-related parameters in patients with a high risk of CVD and fasting TG levels ≥[…] and <500 mg/dL, despite LDL-C goal on statin therapy. These CVD-parameters include lipid levels, lipoprotein levels, and inflammatory markers, such as TC, LDL-C, HDL-C, vLDL-C, vLDL-TG, RLP-C, non-HDL-C, Apo B, Apo C-III, Lp-PLA, hsCRP, and ox-LDL, and in plasma and RBC EPA concentration. CVD-parameters were analyzed for median difference in percent change from baseline to week 12 in subjects receiving 4 g/day of E-EPA and those receiving the placebo.
The median difference in percent change from baseline between 4 g/day of E-EPA and placebo for the primary efficacy variable and additional assessments were estimated using the Hodges-Lehmann method (P values from the Wilcoxon rank-sum test for treatment comparisons). Using the Hodges-Lehmann method, departures from normal distribution were observed; for normally distributed parameters, an analysis of covariance model was used with least squares (LS) means and standard errors (SE). Missing values were imputed using the last-observation-carried-forward method. For all post hoc analyses, the alpha for statistical significance was 0.05.

albumin after 12 weeks ([1]; after 12 weeks): 4.5 g/dL
serum creatinine after 12 weeks ([1]; after 12 weeks): 0.9 mg/dL
albumin before treatment ([1]; before the 12 weeks): 4.5 g/dL
eGFR before treatment ([1]; before the 12 weeks): 75.4 mL/min/1.73 m^2
serum creatinine before treatment ([1]; before the 12 weeks): 0.9 mg/dL
SMILES: CC/C=C\C/C=C\C/C=C\C/C=C\C/C=C\CCCC(=O)OCC [E-EPA, ethyl eicosapentaenoate]
VLDL-C Median Difference in % Change From Baseline vs Placebo ([2]; 4 g/day vs placebo, week 12): −26.7%
hsCRP Median Difference in % Change From Baseline vs Placebo ([2]; 4 g/day vs placebo, week 12, listed as Icosapent Ethyl): −25.0%
Apo B Baseline ([2]; 4 g/day, baseline): 87.0 mg/dL
HDL-C Baseline ([2]; 4 g/day, baseline): 35.0 mg/dL
LDL-C Baseline ([2]; 4 g/day, baseline): 76.0 mg/dL
VLDL-C Baseline ([2]; 4 g/day, baseline): 42.0 mg/dL
hsCRP Baseline ([2]; 4 g/day, baseline): 1.9 mg/L
RLP-C Baseline ([2]; 4 g/day, baseline, n = 9): 17.0 mg/dL
Apo B Change From Baseline, % ([2]; 4 g/day, week 12): −7.2%
Apo B End of Treatment ([2]; 4 g/day, week 12): 83.0 mg/dL
Apo C-III Change From Baseline, % ([2]; 4 g/day, week 12): −7.3%
HDL-C Change From Baseline, % ([2]; 4 g/day, week 12): 0.9%
LDL-C Change From Baseline, % ([2]; 4 g/day, week 12): −6.5%
Lp-PLA2 End of Treatment ([2]; 4 g/day, week 12): 150.0 ng/mL
Non-HDL-C Change From Baseline, % ([2]; 4 g/day, week 12): −6.4%
Ox-LDL Change From Baseline, % ([2]; 4 g/day, week 12): −9.5%
RLP-C End of Treatment ([2]; 4 g/day, week 12): 10.0 mg/dL
TC Change From Baseline, % ([2]; 4 g/day, week 12): −8.1%
hsCRP Change From Baseline, % ([2]; 4 g/day, week 12): −16.9%
hsCRP End of Treatment ([2]; 4 g/day, week 12): 2.1 mg/L
